What was measured:
Format in all cases: biochemical
JAK3 = target: T1, JAK3 (Homo sapiens, UniProt P52333); experiment: JAK3 enzyme inhibition test (LANCE method); settings: 1 μM test compound; read-out: JAK3 enzyme inhibitory activity (%, 1 μM)
T1 construct: purchased Invitrogen
T1 sequence (P52333 1-1124): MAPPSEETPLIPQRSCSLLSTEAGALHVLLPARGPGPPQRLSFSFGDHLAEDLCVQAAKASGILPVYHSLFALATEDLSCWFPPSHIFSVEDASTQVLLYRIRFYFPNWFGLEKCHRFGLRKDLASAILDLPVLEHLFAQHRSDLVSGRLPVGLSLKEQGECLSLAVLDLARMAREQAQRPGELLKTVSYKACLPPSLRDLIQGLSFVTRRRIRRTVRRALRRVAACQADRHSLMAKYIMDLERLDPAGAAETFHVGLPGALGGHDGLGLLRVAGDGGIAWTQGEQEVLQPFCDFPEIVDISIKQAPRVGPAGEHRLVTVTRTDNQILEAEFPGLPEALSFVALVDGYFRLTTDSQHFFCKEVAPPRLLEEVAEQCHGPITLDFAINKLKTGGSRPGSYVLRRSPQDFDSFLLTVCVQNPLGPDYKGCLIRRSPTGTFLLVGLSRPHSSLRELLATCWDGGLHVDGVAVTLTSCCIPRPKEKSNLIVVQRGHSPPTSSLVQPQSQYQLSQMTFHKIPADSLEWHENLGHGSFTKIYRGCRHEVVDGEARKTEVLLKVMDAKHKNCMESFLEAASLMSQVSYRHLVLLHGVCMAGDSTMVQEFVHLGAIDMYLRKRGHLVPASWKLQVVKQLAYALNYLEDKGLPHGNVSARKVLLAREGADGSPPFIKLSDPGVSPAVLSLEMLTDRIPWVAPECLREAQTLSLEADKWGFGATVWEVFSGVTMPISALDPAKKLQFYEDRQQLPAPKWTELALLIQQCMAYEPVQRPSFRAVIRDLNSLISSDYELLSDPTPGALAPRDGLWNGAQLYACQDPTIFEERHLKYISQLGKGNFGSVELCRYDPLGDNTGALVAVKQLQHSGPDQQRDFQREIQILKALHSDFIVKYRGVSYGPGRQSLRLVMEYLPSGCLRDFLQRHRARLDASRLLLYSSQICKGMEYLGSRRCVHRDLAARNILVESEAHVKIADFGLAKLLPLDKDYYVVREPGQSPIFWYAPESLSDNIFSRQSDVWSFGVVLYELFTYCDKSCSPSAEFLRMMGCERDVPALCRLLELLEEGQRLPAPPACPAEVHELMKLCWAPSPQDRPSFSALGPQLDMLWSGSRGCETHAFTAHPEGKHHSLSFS
Protocol: (§1) JAK3 enzyme inhibitory activity of test compounds was measured by the LANCE method (PerkinElmer). First, a test compound diluted with assay buffer (50 mM HEPES (pH 7.5), 10 mM MgCl2, 1 mM EGTA, 2 mM DTT, 0.01% Tween20, 0.01% BSA) was added to a 384-well plate by 2 μL each. Then, a JAK3 (Invitrogen) solution and a fluorescence-labeled peptide substrate (ULight-JAK1, PerkinElmer) solution diluted with assay buffer to 12 ng/mL and 300 nM, respectively, were added by 2 μL each. Then, an enzyme reaction was started by adding 2 μL each of ATP solution prepared with assay buffer to 15 μM. After the reaction at room temperature for 1 hr, Detection Buffer (PerkinElmer) prepared to contain 20 mM EDTA, 4 nM europium-labeled anti-phosphotyrosine antibody (PerkinElmer) was added by 6 μL each. After standing at room temperature for 1 hr, fluorescence intensity (excitation wavelength 340 nm, fluorescence wavelength 665 nm, delay time 100 microseconds) was measured by a plate reader, Envision (PerkinElmer). The inhibitory activity of each compound was calculated as a relative activity value to the fluorescence intensity of a well free of enzyme as 100% inhibition.

TYK2 = target: T2, TYK2 (Homo sapiens, UniProt P29597); experiment: TYK2 enzyme inhibition test (LANCE method); settings: 1 μM test compound; read-out: TYK2 enzyme inhibitory activity (%, 1 μM)
T2 construct: purchased Invitrogen
Protocol: as §1, with “TYK2” for “JAK3”, “375” for “12”, “30” for “15”

JAK2 = target: T3, JAK2 (Homo sapiens, UniProt O60674); experiment: JAK2 enzyme inhibition test (LANCE method); settings: 1 μM test compound; read-out: JAK2 enzyme inhibitory activity (%, 1 μM)
T3 construct: purchased Invitrogen
Protocol: as §1, with “JAK2” for “JAK3”, “6” for “12”, “45” for “15”

JAK1 = target: T4, JAK1 (Homo sapiens, UniProt P23458); experiment: JAK1 enzyme inhibition test (LANCE method); settings: 1 μM test compound; read-out: JAK1 enzyme inhibitory activity (%, 1 μM)
T4 construct: purchased Invitrogen
Protocol: as §1, with “JAK1” for “JAK3”, “187.5” for “12”, “150” for “15”

T4 sequence (P23458 whole entry): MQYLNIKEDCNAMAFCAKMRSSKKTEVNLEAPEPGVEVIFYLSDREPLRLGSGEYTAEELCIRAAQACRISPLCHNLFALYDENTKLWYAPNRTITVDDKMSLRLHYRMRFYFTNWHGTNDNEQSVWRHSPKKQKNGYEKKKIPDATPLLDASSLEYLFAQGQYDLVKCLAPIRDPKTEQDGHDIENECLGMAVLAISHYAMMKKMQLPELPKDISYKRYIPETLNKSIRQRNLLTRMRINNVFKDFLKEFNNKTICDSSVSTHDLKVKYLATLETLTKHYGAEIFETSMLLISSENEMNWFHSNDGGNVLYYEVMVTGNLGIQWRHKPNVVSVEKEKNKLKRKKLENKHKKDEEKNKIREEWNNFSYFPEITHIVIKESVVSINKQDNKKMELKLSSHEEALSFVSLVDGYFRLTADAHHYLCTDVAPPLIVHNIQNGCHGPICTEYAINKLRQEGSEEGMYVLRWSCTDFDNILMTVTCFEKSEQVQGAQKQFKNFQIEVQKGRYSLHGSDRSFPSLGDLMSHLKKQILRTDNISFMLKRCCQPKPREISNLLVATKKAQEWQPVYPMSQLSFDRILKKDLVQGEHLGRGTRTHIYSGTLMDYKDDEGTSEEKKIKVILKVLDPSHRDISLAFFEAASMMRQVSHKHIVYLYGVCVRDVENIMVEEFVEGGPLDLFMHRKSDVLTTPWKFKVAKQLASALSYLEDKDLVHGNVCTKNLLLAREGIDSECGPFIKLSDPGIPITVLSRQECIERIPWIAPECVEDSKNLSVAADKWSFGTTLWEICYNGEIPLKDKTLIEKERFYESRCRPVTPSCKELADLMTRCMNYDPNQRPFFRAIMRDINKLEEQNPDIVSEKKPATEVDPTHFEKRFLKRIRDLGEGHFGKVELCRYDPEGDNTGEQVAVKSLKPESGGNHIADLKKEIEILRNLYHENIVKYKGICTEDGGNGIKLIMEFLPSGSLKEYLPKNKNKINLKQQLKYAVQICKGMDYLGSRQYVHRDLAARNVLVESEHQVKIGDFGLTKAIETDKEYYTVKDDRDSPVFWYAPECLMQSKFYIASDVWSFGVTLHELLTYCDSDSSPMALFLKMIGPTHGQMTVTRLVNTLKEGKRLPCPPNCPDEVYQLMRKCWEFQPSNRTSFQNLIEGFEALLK
T2 sequence (P29597 whole entry): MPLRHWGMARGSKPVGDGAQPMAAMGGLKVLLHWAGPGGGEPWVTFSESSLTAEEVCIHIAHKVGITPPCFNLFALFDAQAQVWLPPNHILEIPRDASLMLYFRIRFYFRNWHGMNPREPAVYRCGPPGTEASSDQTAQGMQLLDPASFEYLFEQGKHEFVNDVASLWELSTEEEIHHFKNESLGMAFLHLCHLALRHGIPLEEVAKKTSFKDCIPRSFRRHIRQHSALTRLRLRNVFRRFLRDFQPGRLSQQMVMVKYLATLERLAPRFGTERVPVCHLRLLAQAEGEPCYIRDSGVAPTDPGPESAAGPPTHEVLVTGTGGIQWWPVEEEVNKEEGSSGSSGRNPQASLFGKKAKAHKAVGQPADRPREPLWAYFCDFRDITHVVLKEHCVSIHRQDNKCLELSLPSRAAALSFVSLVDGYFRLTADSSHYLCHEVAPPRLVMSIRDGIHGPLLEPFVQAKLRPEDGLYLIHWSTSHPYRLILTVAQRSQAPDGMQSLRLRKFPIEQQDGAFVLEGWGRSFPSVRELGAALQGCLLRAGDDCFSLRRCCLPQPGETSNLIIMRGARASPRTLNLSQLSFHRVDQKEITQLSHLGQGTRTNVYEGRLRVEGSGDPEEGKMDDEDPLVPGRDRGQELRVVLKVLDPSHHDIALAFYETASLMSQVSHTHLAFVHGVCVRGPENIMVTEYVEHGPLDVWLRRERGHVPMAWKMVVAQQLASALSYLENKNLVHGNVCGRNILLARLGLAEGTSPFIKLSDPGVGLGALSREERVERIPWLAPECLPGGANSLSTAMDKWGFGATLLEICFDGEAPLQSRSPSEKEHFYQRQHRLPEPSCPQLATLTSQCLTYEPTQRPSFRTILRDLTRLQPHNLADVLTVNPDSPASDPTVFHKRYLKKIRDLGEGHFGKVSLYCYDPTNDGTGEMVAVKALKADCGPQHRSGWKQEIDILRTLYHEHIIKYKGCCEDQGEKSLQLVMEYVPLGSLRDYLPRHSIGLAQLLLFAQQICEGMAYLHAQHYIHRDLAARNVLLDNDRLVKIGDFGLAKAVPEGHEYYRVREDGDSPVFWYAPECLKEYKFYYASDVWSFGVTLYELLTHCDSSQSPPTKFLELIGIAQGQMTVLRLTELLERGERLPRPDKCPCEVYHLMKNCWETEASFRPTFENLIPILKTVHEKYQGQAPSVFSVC
T3 sequence (O60674 whole entry): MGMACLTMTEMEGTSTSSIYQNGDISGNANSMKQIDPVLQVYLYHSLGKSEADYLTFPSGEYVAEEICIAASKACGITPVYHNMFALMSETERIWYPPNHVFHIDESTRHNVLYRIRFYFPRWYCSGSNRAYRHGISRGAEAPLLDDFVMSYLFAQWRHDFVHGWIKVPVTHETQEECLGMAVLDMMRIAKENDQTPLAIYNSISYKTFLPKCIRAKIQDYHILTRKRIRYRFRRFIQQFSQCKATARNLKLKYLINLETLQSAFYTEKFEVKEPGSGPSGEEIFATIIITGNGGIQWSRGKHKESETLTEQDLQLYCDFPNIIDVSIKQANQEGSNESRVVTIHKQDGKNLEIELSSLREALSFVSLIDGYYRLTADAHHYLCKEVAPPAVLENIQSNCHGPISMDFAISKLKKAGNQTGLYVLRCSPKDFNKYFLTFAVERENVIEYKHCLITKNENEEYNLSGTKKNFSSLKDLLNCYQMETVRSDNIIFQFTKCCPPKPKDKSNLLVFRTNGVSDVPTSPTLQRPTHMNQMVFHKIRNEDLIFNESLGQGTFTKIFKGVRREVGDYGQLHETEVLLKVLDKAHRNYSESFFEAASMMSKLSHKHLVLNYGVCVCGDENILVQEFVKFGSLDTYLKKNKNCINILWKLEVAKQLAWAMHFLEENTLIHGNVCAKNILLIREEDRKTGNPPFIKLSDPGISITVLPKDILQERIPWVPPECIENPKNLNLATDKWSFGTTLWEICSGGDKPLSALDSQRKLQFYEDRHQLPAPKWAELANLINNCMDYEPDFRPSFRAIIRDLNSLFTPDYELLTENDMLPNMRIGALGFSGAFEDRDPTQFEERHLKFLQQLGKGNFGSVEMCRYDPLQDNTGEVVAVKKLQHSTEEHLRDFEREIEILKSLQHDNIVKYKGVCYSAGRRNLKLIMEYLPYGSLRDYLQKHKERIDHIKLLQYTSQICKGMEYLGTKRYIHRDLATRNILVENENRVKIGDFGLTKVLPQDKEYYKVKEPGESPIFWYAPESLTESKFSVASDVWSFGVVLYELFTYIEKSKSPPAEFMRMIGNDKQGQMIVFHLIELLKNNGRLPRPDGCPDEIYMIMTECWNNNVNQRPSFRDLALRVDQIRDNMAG

Structure (SMILES)	inhibition at 1 µM (JAK3) [%]	inhibition at 1 µM (TYK2) [%]	inhibition at 1 µM (JAK2) [%]	inhibition at 1 µM (JAK1) [%]
COCC(=O)N1CCN(c2cc(-c3cn([C@@H](C)C(C)C)c(=O)c4c(N)n[nH]c34)nn2C)CC1 [Example 17, 3-amino-7-(5-(4-(methoxyacetyl)piperazin-1-yl)-1-methyl-1H-pyrazol-3-yl)-5-((2S)-3-methylbutan-2-yl)-1,5-dihydro-4H-pyrazolo[4,3-c]pyridin-4-one]	99	100	99	97
CC(C)[C@H](C)n1cc(-c2cc(N3CCC(C)(O)CC3)n(C)n2)c2[nH]nc(N)c2c1=O [Example 18, 3-amino-7-(5-(4-hydroxy-4-methylpiperidin-1-yl)-1-methyl-1H-pyrazol-3-yl)-5-((2S)-3-methylbutan-2-yl)-1,5-dihydro-4H-pyrazolo[4,3-c]pyridin-4-one]	99	99	98	96
CC(C)[C@H](C)n1cc(-c2cc(N3CCCCC3)n(C)n2)c2[nH]nc(N)c2c1=O [Example 19, 3-amino-5-((2S)-3-methylbutan-2-yl)-7-(1-methyl-5-(piperidin-1-yl)-1H-pyrazol-3-yl)-1,5-dihydro-4H-pyrazolo[4,3-c]pyridin-4-one]	99	99	98	98
CC(C)[C@H](C)n1cc(-c2cc(N3CCC[C@H]3CO)n(C)n2)c2[nH]nc(N)c2c1=O [Example 20, 3-amino-7-(5-((2S)-2-(hydroxymethyl)pyrrolidin-1-yl)-1-methyl-1H-pyrazol-3-yl)-5-((2S)-3-methylbutan-2-yl)-1,5-dihydro-4H-pyrazolo[4,3-c]pyridin-4-one]	100	99	98	95
CC(C)[C@H](C)n1cc(-c2cc(N3CC[C@@H](O)C3)n(C)n2)c2[nH]nc(N)c2c1=O [Example 21, 3-amino-7-(5-((3R)-3-hydroxypyrrolidin-1-yl)-1-methyl-1H-pyrazol-3-yl)-5-((2S)-3-methylbutan-2-yl)-1,5-dihydro-4H-pyrazolo[4,3-c]pyridin-4-one]	99	99	98	97
CC(C)[C@H](C)n1cc(-c2cc(N3CCC[C@@H]3CO)n(C)n2)c2[nH]nc(N)c2c1=O [Example 22, 3-amino-7-(5-((2R)-2-(hydroxymethyl)pyrrolidin-1-yl)-1-methyl-1H-pyrazol-3-yl)-5-((2S)-3-methylbutan-2-yl)-1,5-dihydro-4H-pyrazolo[4,3-c]pyridin-4-one]	99	99	98	96

More lines, now with the values ahead:

inhibition at 1 µM (JAK3) [%]	inhibition at 1 µM (TYK2) [%]	inhibition at 1 µM (JAK2) [%]	inhibition at 1 µM (JAK1) [%]	Structure (SMILES)
99	99	98	97	CC(C)[C@H](C)n1cc(-c2cc(N3CC[C@H](O)C3)n(C)n2)c2[nH]nc(N)c2c1=O [Example 23, 3-amino-7-(5-((3S)-3-hydroxypyrrolidin-1-yl)-1-methyl-1H-pyrazol-3-yl)-5-((2S)-3-methylbutan-2-yl)-1,5-dihydro-4H-pyrazolo[4,3-c]pyridin-4-one]
99	100	98	96	CO[C@@H]1CCN(c2cc(-c3cn([C@@H](C)C(C)C)c(=O)c4c(N)n[nH]c34)nn2C)C1 [Example 24, 3-amino-7-(5-((3R)-3-methoxypyrrolidin-1-yl)-1-methyl-1H-pyrazol-3-yl)-5-((2S)-3-methylbutan-2-yl)-1,5-dihydro-4H-pyrazolo[4,3-c]pyridin-4-one]
99	100	98	98	CO[C@H]1CCN(c2cc(-c3cn([C@@H](C)C(C)C)c(=O)c4c(N)n[nH]c34)nn2C)C1 [Example 25, 3-amino-7-(5-((3S)-3-methoxypyrrolidin-1-yl)-1-methyl-1H-pyrazol-3-yl)-5-((2S)-3-methylbutan-2-yl)-1,5-dihydro-4H-pyrazolo[4,3-c]pyridin-4-one]
98	98	96	88	COC[C@@H]1CCCN1c1cc(-c2cn([C@@H](C)C(C)C)c(=O)c3c(N)n[nH]c23)nn1C [Example 26, 3-amino-7-(5-((2S)-2-(methoxymethyl)pyrrolidin-1-yl)-1-methyl-1H-pyrazol-3-yl)-5-((2S)-3-methylbutan-2-yl)-1,5-dihydro-4H-pyrazolo[4,3-c]pyridin-4-one]

From patent publication US9637483B2, “Heterocyclic compound” (TAKEDA PHARMACEUTICAL COMPANY LIMITED, priority 2013, dated 2017)
